Target: T1, human cannabinoid CB2 receptor (Homo sapiens, UniProt P34972)
T1 construct: expressed in transfected cells; host or cells: human embryonic kidney (HEK) cells, transient, Semliki Forest virus system
Experiment: Affinity for cannabinoid CB2 receptors, [3H]-CP-55,940 radioligand binding on membrane preparations of transfected HEK cells
Details: [3H]-CP-55,940 as radioligand, HEK cell membranes
Method: The affinity of the compounds of the invention for cannabinoid CB2 receptors was determined using membrane preparations of human embryonic kidney (HEK) cells in which the human cannabinoid CB2 receptor is transiently transfected using the Semliki Forest virus system in conjunction with [3H]-CP-55,940 as radioligand. After incubation of a cell membrane preparation with the [3H]-ligand, with or without addition of compounds of the invention, separation of bound and free ligand was performed by filtration over glassfiber filters. Radioactivity on the filter was measured by liquid scintillation counting.

T1 sequence (P34972 whole entry): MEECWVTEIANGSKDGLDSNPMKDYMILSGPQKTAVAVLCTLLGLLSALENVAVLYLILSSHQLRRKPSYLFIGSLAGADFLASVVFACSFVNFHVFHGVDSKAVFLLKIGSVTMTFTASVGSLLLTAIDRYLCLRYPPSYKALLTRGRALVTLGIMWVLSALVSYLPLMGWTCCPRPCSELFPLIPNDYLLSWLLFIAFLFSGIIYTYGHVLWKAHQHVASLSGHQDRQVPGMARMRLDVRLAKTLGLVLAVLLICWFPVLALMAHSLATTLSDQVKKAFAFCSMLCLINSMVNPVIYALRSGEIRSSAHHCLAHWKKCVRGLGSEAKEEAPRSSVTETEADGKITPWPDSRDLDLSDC

Compound | Ki
2-Ethyl-2-{[5-pyrrolidin-1-yl-6-(2,2,2-trifluoro-ethoxy)-pyrazine-2-carbonyl]-amino}-pentanoic acid methyl ester [Example 14] | 0.063 µM
6-Cyclopropylmethoxy-5-pyrrolidin-1-yl-pyrazine-2-carboxylic acid ((S)-1-hydroxymethyl-3-methyl-butyl)-amide [Example 4] | 0.044 µM
CC(C)C[C@@H](CO)NC(=O)c1cnc(OCC2CC2)c(N2CCCCC2)n1 [Example 44, 5-Cyclopropylmethoxy-6-piperidin-1-yl-pyrazine-2-carboxylic acid ((S)-1-hydroxymethyl-3-methyl-butyl)-amide] | 0.043 µM
